# Assay results reported in ChEMBL document CHEMBL2385061, “Synthesis and carbonic anhydrase inhibitory properties of sulfamides structurally related to dopamine” (Bioorg Med Chem, 2013).
# What was measured:
# [1] = target: Carbonic anhydrase 5A, mitochondrial (Homo sapiens, UniProt P35218); assay: Inhibition of human carbonic anhydrase-5A preincubated for 15 mins by stopped-flow CO2 hydration assay
# Carbonic anhydrase 9 = Carbonic anhydrase 9 (Homo sapiens, UniProt Q16790); assay: Inhibition of human carbonic anhydrase-9 preincubated for 15 mins by stopped-flow CO2 hydration assay
# Sequence of Carbonic anhydrase 5A, mitochondrial (P35218 whole entry): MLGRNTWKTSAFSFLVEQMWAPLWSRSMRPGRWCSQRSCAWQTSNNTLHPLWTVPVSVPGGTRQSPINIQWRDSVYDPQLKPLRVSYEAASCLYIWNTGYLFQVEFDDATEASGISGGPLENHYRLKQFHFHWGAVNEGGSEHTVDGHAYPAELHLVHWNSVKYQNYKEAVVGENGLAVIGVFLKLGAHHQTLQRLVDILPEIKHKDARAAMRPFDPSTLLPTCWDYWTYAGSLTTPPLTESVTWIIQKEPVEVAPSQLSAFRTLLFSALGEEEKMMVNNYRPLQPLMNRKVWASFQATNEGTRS
SMILES,Ki [1],Ki (Carbonic anhydrase 9)
COc1cc(CCNS(N)(=O)=O)cc(OC)c1OC,> 50000 nM,221 nM
COc1cccc(CCNS(N)(=O)=O)c1OC,> 50000 nM,> 50000 nM
COc1ccc(CCNS(N)(=O)=O)cc1OC,2280 nM,92 nM
COc1ccc(CCNS(N)(=O)=O)cc1,3250 nM,376 nM
COc1ccccc1CCNS(N)(=O)=O,3340 nM,41 nM
